For orientation: AC50 means the midpoint of the concentration-response curve, whichever way the signal moves. The term EC50 denotes the midpoint of the concentration-response curve. As a reminder, the IC50 is the concentration at which inhibition is half-maximal.

Results on ten compounds are retold here after ChEMBL document CHEMBL1201862, “PubChem BioAssay data set” (2004).

Calls of active or inactive are those of the source. Some results are limits rather than exact numbers.

The target in assay [1] is Trypsin (Sus scrofa, UniProt P00761). Nature of the assay: porcine trypsin inhibitors, dose response, selectivity assay for Rce1 protease inhibitor project, biochemical, quenched peptide fluorescence, cherry-pick (AID 488789).
Chain of Trypsin (P00761 whole entry): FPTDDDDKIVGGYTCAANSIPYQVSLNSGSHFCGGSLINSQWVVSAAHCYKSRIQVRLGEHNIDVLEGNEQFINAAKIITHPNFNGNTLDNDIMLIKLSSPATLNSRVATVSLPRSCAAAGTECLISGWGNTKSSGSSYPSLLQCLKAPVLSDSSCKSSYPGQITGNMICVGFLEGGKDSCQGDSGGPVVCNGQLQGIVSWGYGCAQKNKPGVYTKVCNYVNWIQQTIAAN
The target of assay [2] is T1, CAAX prenyl protease 2 (Homo sapiens, UniProt Q9Y256).
T1 sequence (Q9Y256 whole entry): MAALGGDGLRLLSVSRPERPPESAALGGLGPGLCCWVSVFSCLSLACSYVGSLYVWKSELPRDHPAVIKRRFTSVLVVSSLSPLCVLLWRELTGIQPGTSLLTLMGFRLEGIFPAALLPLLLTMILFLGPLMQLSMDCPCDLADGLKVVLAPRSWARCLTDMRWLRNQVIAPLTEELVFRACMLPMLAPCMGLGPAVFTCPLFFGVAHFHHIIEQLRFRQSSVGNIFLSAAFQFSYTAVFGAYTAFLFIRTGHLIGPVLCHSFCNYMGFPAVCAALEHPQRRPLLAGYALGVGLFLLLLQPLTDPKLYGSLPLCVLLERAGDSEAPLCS
Nature of the assay: human Rce1 protease inhibitors, dose response, biochemical, yeast membranes, quenched-peptide fluorescence, cherry-pick (AID 588849).

The nature of assay [3]: inhibitors of intracellular T. cruzi replication, confirmation, NIH3T3 host cells, beta-gal luminescence (AID 2044).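 Further: intracellular parasites grown in NIH/3T3 mouse fibroblasts as host cells; luminescent beta-galactosidase reporter signal from transgenic T. cruzi replicating inside host cells; inhibitors lower the luminescence signal.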 The format is functional, cell-based.
Assay [4] can be described thus: cytotoxicity toward NIH3T3 fibroblasts, dose response, counter-screen, cell-based, ATP luminescence, mouse fibroblasts (AID 2010).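 Further: cells exposed to compound for about 90 hours before reading.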 It is filed as functional.
The target in assay [5] is T2, Ubiquitin-conjugating enzyme E2 N (Homo sapiens, UniProt P61088).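 Further: Dose-response confirmation in a TR-FRET assay detecting UBC13-driven polyubiquitin chain formation, inhibition measured.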
T2 sequence (P61088 whole entry): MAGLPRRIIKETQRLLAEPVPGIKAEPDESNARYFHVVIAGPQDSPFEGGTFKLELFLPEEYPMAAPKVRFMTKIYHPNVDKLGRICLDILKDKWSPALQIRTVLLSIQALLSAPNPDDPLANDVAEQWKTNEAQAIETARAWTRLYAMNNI
It is filed as functional.

The target of assay [6] is DNA repair protein RAD52 homolog (Homo sapiens, UniProt P43351). It is filed as functional, biochemical.
Chain of DNA repair protein RAD52 homolog (P43351 whole entry): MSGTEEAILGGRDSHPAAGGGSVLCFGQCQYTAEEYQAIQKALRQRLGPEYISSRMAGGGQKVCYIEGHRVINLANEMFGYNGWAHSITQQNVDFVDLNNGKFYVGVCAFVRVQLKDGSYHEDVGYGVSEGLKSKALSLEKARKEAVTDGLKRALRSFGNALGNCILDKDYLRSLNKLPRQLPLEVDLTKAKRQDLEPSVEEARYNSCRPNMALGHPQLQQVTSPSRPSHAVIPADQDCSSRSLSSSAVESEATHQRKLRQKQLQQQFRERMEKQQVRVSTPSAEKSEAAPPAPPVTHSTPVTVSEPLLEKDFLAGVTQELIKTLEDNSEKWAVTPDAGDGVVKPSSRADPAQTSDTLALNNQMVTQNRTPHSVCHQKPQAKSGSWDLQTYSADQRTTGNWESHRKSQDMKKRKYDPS
Assay [7] concerns the target DNA repair and recombination protein RAD54-like (Homo sapiens, UniProt Q92698). Nature of the assay: inhibitors of human RAD54 branch migration, confirmation, biochemical, fluorescence, cherry-picked samples, dose series (AID 651657). The format is functional.
A short description of assay [8]: HepG2 cell cytotoxicity, dose response, cytotoxicity control, ATP luminescence, cherry-pick, activator set 2 (AID 1053143). The format is functional, cell-based.
The target of assay [9] is T3, High affinity choline transporter 1 (Homo sapiens, UniProt Q9GZV3).
T3 sequence (Q9GZV3 whole entry): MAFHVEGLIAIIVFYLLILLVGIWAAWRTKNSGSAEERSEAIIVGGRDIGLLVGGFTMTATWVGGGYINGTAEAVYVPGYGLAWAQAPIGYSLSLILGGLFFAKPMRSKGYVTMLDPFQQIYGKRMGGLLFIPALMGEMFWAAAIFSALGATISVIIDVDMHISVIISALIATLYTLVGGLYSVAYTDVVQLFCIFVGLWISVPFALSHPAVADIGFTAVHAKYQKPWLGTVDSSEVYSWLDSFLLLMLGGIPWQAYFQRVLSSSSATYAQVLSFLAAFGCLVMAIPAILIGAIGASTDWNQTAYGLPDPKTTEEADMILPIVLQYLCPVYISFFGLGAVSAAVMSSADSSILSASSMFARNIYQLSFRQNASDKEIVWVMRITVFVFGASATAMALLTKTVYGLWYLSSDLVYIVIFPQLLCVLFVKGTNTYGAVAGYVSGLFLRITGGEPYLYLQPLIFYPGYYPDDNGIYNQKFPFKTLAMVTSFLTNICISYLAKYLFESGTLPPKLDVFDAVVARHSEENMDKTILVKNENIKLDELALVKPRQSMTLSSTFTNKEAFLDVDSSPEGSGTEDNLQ
Kind of assay: CHT inhibitors, dose response, cell-based, 5-point CRC, membrane potential dye (AID 504840). The format is functional.

Assay [10] can be described thus: human group III sPLA2 inhibitors, dose response, biochemical, QFRET, IC50 (AID 743457).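 Further: green fluorescence rise as the enzyme cleaves BODIPY PC-A2 in liposomes; potency for inhibition of the enzyme.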
Assay [11] can be described thus: T. cruzi growth inhibition in host cells, dose response, cell-based, plate reader, dry powder, set 2 (AID 652275). The format is functional.
Assay [12] deals with Protein disulfide-isomerase (Homo sapiens, UniProt P07237). Kind of assay: PDI inhibitors, insulin turbidity readout, confirmation, biochemical, dry powder samples, set 2 (AID 652146).
Chain of Protein disulfide-isomerase (P07237 whole entry): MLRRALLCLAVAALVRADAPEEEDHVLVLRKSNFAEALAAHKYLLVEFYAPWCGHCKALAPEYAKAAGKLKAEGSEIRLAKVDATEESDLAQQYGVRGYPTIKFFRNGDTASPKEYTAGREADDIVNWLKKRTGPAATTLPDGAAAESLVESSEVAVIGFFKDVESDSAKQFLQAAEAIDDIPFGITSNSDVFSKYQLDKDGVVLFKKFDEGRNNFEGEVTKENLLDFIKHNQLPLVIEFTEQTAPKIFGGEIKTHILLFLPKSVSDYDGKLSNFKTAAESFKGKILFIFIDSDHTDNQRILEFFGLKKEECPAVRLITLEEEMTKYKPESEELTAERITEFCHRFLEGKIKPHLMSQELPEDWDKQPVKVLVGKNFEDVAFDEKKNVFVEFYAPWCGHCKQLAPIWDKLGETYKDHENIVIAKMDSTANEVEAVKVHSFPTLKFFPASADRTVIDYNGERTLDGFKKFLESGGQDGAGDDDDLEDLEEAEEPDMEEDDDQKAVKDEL
The target in assay [13] is Protein Wnt-3a (Mus musculus, UniProt P27467). Kind of assay: SAR analysis of small molecule antagonists of Gli-SUFU in a Wnt3a luminescent reporter assay. The format is functional. On the technique in general: A reporter such as luciferase makes a cellular process visible.
Chain of Protein Wnt-3a (P27467 whole entry, the tested form may be a part): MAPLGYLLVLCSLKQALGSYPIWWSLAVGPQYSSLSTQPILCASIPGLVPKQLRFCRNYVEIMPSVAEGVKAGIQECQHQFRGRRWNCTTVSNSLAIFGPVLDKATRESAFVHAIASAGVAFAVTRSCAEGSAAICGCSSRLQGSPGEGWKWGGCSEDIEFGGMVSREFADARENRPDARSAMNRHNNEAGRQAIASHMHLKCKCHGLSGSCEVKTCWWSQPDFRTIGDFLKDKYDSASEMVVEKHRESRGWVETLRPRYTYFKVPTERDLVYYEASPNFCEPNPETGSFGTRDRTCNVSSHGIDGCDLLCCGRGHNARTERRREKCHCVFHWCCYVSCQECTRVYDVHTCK
The target of assay [14] is T4, Oxysterols receptor LXR-beta (Homo sapiens, UniProt P55055).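 Further: agonist activity at LXR measured by a cell-based luminescence readout across a dose range, run as a counterscreen for daf-12 agonists; HEK293 cells with Gal4-LXR fusion and GAL4-driven luciferase reporter; potency for activation of Gal4-LXR reporter so compounds are agonists.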
T4 sequence (P55055 whole entry): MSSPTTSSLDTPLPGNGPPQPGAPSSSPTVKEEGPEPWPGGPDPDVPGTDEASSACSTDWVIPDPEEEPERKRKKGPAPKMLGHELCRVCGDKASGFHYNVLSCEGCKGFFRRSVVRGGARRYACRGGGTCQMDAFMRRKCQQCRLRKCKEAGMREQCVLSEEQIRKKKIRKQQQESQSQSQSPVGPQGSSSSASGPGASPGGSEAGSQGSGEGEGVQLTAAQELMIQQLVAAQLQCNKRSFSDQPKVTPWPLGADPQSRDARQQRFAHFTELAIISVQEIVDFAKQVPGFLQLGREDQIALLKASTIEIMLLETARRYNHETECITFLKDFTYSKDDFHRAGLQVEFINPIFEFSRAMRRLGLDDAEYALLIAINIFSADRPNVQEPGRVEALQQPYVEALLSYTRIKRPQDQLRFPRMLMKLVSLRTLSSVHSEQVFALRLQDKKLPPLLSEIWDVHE
The format is functional, cell-based.

For assay [15], the target named is FAD-linked sulfhydryl oxidase ALR (Homo sapiens, UniProt P55789). Kind of assay: inhibitors of human ALR sulfhydryl oxidase, dose response, biochemical, H2O2 detection, luminescence, cherry-pick (AID 493248).
Chain of FAD-linked sulfhydryl oxidase ALR (P55789 whole entry): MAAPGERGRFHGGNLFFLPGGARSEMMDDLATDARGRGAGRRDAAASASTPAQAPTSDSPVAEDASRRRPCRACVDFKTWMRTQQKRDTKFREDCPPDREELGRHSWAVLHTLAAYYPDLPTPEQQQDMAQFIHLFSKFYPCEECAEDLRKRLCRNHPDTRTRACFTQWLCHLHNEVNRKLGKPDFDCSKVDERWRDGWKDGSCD

Chain of DNA repair and recombination protein RAD54-like (Q92698 whole entry): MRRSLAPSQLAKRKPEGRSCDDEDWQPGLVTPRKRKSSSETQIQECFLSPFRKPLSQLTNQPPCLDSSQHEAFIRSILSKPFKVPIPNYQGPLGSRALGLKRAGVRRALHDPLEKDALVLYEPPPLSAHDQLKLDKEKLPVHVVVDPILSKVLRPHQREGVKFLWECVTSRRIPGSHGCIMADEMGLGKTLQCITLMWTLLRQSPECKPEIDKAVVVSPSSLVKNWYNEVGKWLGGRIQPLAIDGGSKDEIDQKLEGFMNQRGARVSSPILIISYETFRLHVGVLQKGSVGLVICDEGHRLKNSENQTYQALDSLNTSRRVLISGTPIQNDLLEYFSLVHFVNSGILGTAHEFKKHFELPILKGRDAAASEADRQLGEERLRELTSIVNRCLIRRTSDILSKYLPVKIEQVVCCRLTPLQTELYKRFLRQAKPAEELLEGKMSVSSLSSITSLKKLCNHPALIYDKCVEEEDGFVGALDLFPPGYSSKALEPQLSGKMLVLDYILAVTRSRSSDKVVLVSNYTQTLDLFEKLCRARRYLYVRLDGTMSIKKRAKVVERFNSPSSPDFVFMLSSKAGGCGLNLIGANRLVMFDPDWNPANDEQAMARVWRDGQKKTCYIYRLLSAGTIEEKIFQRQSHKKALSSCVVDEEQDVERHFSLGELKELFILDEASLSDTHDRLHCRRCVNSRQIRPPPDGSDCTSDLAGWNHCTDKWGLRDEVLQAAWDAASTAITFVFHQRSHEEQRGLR

Consider `CCOC(=O)c1c(-c2ccccc2)oc2ccc(OCC(O)CNCCN(C)C)cc12` (stereo not drawn), for which the values for the AC50 in [1], in assay [2] and in assay [6] were 10.3 µM (active), 11.8 µM (active) and 5 µM (active), respectively. Moreover, the 50% effective concentration (EC50) in assay [3] was 1.79 µM (active); in assay [4], 5.42 µM (active). Besides, the IC50 in assay [5] was > 20 µM (inactive). Consider `CN(C)CCCN(C(=O)c1ccc([N+](=O)[O-])o1)c1nc2cc3c(cc2s1)OCO3`, for which the AC50 was 24.6 µM (active) in assay [7] and 10.5 µM (active) in assay [6]. For the compound `Cc1ncoc1C(=O)Nc1ncc([N+](=O)[O-])s1`, the concentration at half-maximal activity (AC50) in [8] is 26 µM (active). For `O=C(NN=C(S)Nc1ccc(F)cc1)C1CC1c1ccc(Cl)cc1` (stereo not drawn), the values for the half-maximal inhibitory concentration (IC50) in assay [9] and in assay [10] were 13.2 µM (active) and > 122 µM (inactive), respectively. For `O=C(c1ccc(F)cc1)N1CCCCN2[C@@H](CO)[C@H](c3ccc(-c4ccccc4)cc3)[C@@H]2C1`, the AC50 in [11] was 2.56 µM (active).

For `CC(C)N1CC2(CN(Cc3ccc(-c4cccnc4)cc3)C2)Oc2c(NC(=O)c3ccncc3)cccc2C1=O`, the concentration at half-maximal activity (AC50) in assay [11] is 0.179 µM (active).

Take `O=C(NC1CCCC1)C1(CCOc2ccccc2)CCN(Cc2ccc(O)c(Cl)c2)CC1`: the concentration at half-maximal activity (AC50) in assay [12] was 5 µM (active). With `CCN(CC)c1cc(NC(=O)c2ccccc2)ncn1`, in assay [13], the IC50 is > 21.8 µM (inactive). Still for that read-out and setting: next, `CCN(CC)c1cc(NC(=O)c2cc(OC)cc(OC)c2)ncn1`: > 21.8 µM (inactive). As to `Cc1nn(-c2ccccc2)c(Cl)c1/C=N/Nc1ccc(Cl)c(C(=O)O)c1`, the EC50 in assay [14] is > 67.5 µM (inactive). For the same compound, in assay [15], the half-maximal activity concentration (AC50) was 0.907 µM (active).
